Results as given in patent US20150181873A1, “HERBICIDE-RESISTANT SUNFLOWER PLANTS, POLYNUCLEOTIDES ENCODING HERBICIDE=RESISTANT ACETO HYDROXY ACID SYNTHASE LARGE SUBUNIT PROTEINS, AND METHODS OF USE” (NIDERA S.A., priority 2013, published 2015).
Values joined by “and” are separate entries in the source; they are usually repeats but may differ in a detail not shown here. Identical values can stand only once.

What was measured:
Format in all cases: in vivo, Helianthus annuus
[1] = tested on: sunflower genotypes carrying the A205V mutation event; test: Greenhouse imazapir dose response, A205V genotypes together; details: 14 DAT; for biomass accumulation, Dif with control / plant height, Dif with Control / root dry weight, Dif with control: A205V mean; for biomass accumulation, % of untreated, Mean / root dry weight, % of untreated, Mean / plant height, % of untreated, Mean: six A205V genotypes; for Phytotoxicity Index, Mean: three A205V genotypes
Procedure: (§1) A greenhouse study was conducted to quantify and contrast the imazapir sensivity of the mutants A122T and A205V in different genetic backgrounds at the whole plant level in sunflower. Seeds of the different sunflower lines that were used in this study were obtained under field conditions.
(§2) Seeds were sown in Petri dishes and, after germination, plantlets were transplanted to pots of 10 cm of diameter in a potting media consisting of equal parts of vermiculite, soil and sand. Plants were grown in a greenhouse under natural light conditions supplemented with 400 W sodium halide lamps to provide a 16 hrs daylength. Day/night temperatures were 25 and 20° C., respectively. At the V2 stage 10 plants of each genotype were randomly assigned to each treatment consisting of […] imazapir doses (0, 40, 80, 160, 240, 320, 400 and 480 g ai/ha), and a zero-time biomass determination. Experiment was arranged as a randomized block design with a full factorial (sunflower line×treatment) arrangement of treatments and 10 replications.
(§3) On the day of herbicide application ten plants of each genotype were cut at the cotyledonal node and dried at 60° C. for 48 hrs zero-time for dried weight determination. […] Height was determined as the distance between the cotyledonal node and the apex of each plant. For root biomass determination, each plant was taken from the pot and the potting media was washed out from the roots. Above ground biomass data from each line were converted to biomass accumulation after application by subtracting the appropriate average zero-time biomass from each sample. Dry biomass data were converted to percentages of the untreated control plants within each line to allow direct comparisons between groups.

[2] = tested on: sunflower hybrid TH1 (A205V); test: Greenhouse imazapir dose response, TH1; details: 14 DAT
Procedure: as §1, §2, §3

[3] = tested on: sunflower restorer line GIM 5-6 (A122T); test: Greenhouse imazapir dose response, GIM 5-6; details: GIM5-6 (A122T), 14 DAT
Procedure: as §1, §2, §3

Sunflower line S4897 = test: Greenhouse spray injury rating, line S4897; details: imazapyr 360 gm ai/ha (column 360/240)
From the text: Sunflower lines S4897, Clearfield® sunflower varieties A, B, C and a conventional non-Clearfield variety were sprayed with three rates of imazamox (Raptor™), 100, 200 and 300 gm ai/ha plus 0.5% Sun It II and two rates of imazapyr (Arsenal™) 160 and 360 gm ai/ha plus 0.5% Sun It II when the plants were at the two to three leaf stage. Ratings were taken at 14 days after application (DAT) for injury. Injury was rated on a scale from 0 to 9 where 0=no injury to 9=dead plant. Twelve plants were sprayed per herbicide/rate treatment. Statistical analysis was conducted with STATGRAPHICS Plus 5.0 by using ANOVA and LSD procedures.
After plants were sprayed, it was realized that a height difference between S4897 and other sunflower varieties would have impacted the actual herbicide dose that was delivered. The spray boom height had been calibrated against S4897 and since the other varieties were taller and closer to the boom they would have received a greater dose of herbicide. Rates were recalibrated for the other varieties to determine the approximate dose they would have received. Assessments were made as presented in Table 2 since it was not possible to make a direct rate comparison due to the effect of the height. For example injury scores were compare for S4897 treated imazamox rate 100 gm ai/ha to the other varieties treated at 75 gm ai/ha. The treatment dose of 300 gm ai/ha for line S4897 was equivalent to the treatment of 200 gm ai/ha for the other varieties, which […].

## CC(C)C1(C)N=C(c2ncccc2C(=O)O)NC1=O (centres unmarked) [Imazapyr, imazapyr]
[1]; 0.5x (40 g ai/ha)
  biomass accumulation, Dif with control: 5.5%
  plant height, Dif with Control: 5.6%
  root dry weight, Dif with control: 12.8%
  biomass accumulation, % of untreated, Mean: 94.5%
  root dry weight, % of untreated, Mean: 87.2%
  Phytotoxicity Index, Mean: 0
[1]; 1x (80 g ai/ha)
  biomass accumulation, Dif with control: 17.8%
  plant height, Dif with Control: 10.8%
  root dry weight, Dif with control: 29.2%
  biomass accumulation, % of untreated, Mean: 82.2%
  root dry weight, % of untreated, Mean: 70.8%
  Phytotoxicity Index, Mean: 0
[1]; 2x (160 g ai/ha)
  biomass accumulation, Dif with control: 38.4%
  plant height, Dif with Control: 30.8%
  root dry weight, Dif with control: 49.4%
  biomass accumulation, % of untreated, Mean: 61.6%
  plant height, % of untreated, Mean: 69.2%
  root dry weight, % of untreated, Mean: 50.6%
  Phytotoxicity Index, Mean: 2.2
[1]; 3x (240 g ai/ha)
  biomass accumulation, Dif with control: 52.4%
  plant height, Dif with Control: 49.6%
  root dry weight, Dif with control: 60.8%
  biomass accumulation, % of untreated, Mean: 47.6%
  plant height, % of untreated, Mean: 50.4%
  root dry weight, % of untreated, Mean: 39.2%
  Phytotoxicity Index, Mean: 5.1
[1]; 4x (320 g ai/ha)
  biomass accumulation, Dif with control: 64.6%
  plant height, Dif with Control: 66.3%
  root dry weight, Dif with control: 68.9%
  biomass accumulation, % of untreated, Mean: 35.4%
  plant height, % of untreated, Mean: 33.7%
  root dry weight, % of untreated, Mean: 31.1%
  Phytotoxicity Index, Mean: 7.4
[1]; 5x (400 g ai/ha)
  biomass accumulation, Dif with control: 67.6%
  plant height, Dif with Control: 68.0%
  root dry weight, Dif with control: 69.3%
  biomass accumulation, % of untreated, Mean: 32.4%
  plant height, % of untreated, Mean: 32.0%
  root dry weight, % of untreated, Mean: 30.7%
  Phytotoxicity Index, Mean: 8.2
[1]; 6x (480 g ai/ha)
  biomass accumulation, Dif with control: 70.0%
  root dry weight, Dif with control: 75.6%
  biomass accumulation, % of untreated, Mean: 30.0%
  plant height, % of untreated, Mean: 30.2%
  root dry weight, % of untreated, Mean: 24.4%
  Phytotoxicity Index, Mean: 8.2
[1]; 6x (480 g ai/ha), listed as imazapir
  plant height, Dif with Control: 68.9% and 69.8%
[2]; 0.5x (40 g ai/ha)
  Phytotoxicity Index: 0
  biomass accumulation, % of untreated: 95.0%
  plant height, % of untreated: 99.5%
  root dry weight, % of untreated: 79.4%
[2]; 1x (80 g ai/ha)
  Phytotoxicity Index: 0
  biomass accumulation, % of untreated: 89.6%
  plant height, % of untreated: 99.5%
  root dry weight, % of untreated: 70.7%
[2]; 2x (160 g ai/ha)
  Phytotoxicity Index: 1.8
  biomass accumulation, % of untreated: 75.5%
  plant height, % of untreated: 78.6%
  root dry weight, % of untreated: 69.6%
[2]; 3x (240 g ai/ha)
  Phytotoxicity Index: 6.4
  biomass accumulation, % of untreated: 60.4%
  plant height, % of untreated: 48.4%
  root dry weight, % of untreated: 42.3%
[2]; 4x (320 g ai/ha)
  Phytotoxicity Index: 8.0
  biomass accumulation, % of untreated: 46.5%
  plant height, % of untreated: 28.9%
  root dry weight, % of untreated: 38.6%
[2]; 5x (400 g ai/ha)
  Phytotoxicity Index: 8.9
  biomass accumulation, % of untreated: 38.9%
  plant height, % of untreated: 25.3%
  root dry weight, % of untreated: 34.7%
[2]; 6x (480 g ai/ha)
  Phytotoxicity Index: 9.0
  biomass accumulation, % of untreated: 33.9%
  plant height, % of untreated: 27.1%
  root dry weight, % of untreated: 23.1%
[3]; 0.5x (40 g ai/ha)
  biomass accumulation, % of untreated: 100.0%
  plant height, % of untreated: 100.0%
  root dry weight, % of untreated: 100%
[3]; 1x (80 g ai/ha)
  biomass accumulation, % of untreated: 96.4%
  plant height, % of untreated: 100.0%
  root dry weight, % of untreated: 88.0%
[3]; 2x (160 g ai/ha)
  biomass accumulation, % of untreated: 97.7%
  plant height, % of untreated: 99.1%
  root dry weight, % of untreated: 90.0%
[3]; 3x (240 g ai/ha)
  biomass accumulation, % of untreated: 95.8%
  plant height, % of untreated: 98.1%
  root dry weight, % of untreated: 98.0%
[3]; 4x (320 g ai/ha)
  biomass accumulation, % of untreated: 90.8%
  plant height, % of untreated: 91.0%
  root dry weight, % of untreated: 80.0%
[3]; 5x (400 g ai/ha)
  biomass accumulation, % of untreated: 81.9%
  plant height, % of untreated: 94.3%
  root dry weight, % of untreated: 80.0%
[3]; 6x (480 g ai/ha)
  biomass accumulation, % of untreated: 78.0%
  plant height, % of untreated: 85.8%
  root dry weight, % of untreated: 65.8%
Sunflower line S4897; scale 0-9
  Injury at 14 DAT: 0.8 a
Sunflower line S4897; scale 0-9, listed as imazapyr
  Injury at 14 DAT: very little injury
